The test system of one assay is Phaedon cochleariae. The experiment in a line: Phaedon cochleariae larvae test. The note with it: sprayed cabbage leaves.
In another assay the test system is Pyrenophora teres. Nature of the assay: Pyrenophora teres test (in vitro)/microtitre plates. Format: cell-based. The note with it: 120 h, 5 days incubation, single active compound, read-out: % efficacy. As to the method: The microtest is carried out in microtitre plates using Potato Dextrose Broth (PDB) as liquid test medium. The active compounds are used as technical-grade a.i., dissolved in methanol. For inoculation, a spore suspension of Pyrenophora teres is used. After 5 days of incubation in the dark and with shaking (10 Hz), the transparency in each filled cavity of the microtitre plates is determined with the aid of a spectrophotometer.

A further assay concerns Rhizoctonia solani. The experiment in a line: Rhizoctonia solani test (in vitro)/microtitre plates. Format: cell-based. The note with it: 168 h, 7 days incubation, single active compound, read-out: % efficacy. As to the method:
The microtest is carried out in microtitre plates using Potato Dextrose Broth (PDB) as liquid test medium. The active compounds are used as technical-grade a.i., dissolved in acetone. For inoculation, a mycelium suspension of Rhizoctonia solani is used. After 7 days of incubation in the dark and with shaking (10 Hz), the transparency in each filled cavity of the microtitre plates is determined with the aid of a spectrophotometer.

SMILES strings stand for the structures.

Take `CNC(=O)c1cc(Cl)cc(C)c1NC(=O)c1cc(Br)nn1-c1ncccc1Cl` [Rynaxypyr, 3-bromo-N-[4-chloro-2-methyl-6-(methylcarbamoyl)phenyl]-1-(3-chloropyridin-2-yl)-1H-pyrazole-5-carboxamide]: the “Kill in % after 3 d” value in the assay on Phaedon cochleariae (4 ppm) was determined as 80%. Also, the Emax at 1 ppm in the assay with Pyrenophora teres was 11%.

Turning to `Cc1nn(C)c(F)c1C(=O)Nc1ccccc1C(C)CC(C)C` (centres unmarked) [penflufen, N-[2-(1,3-dimethylbutyl)phenyl]-5-fluoro-1,3-dimethyl-1H-pyrazole-4-carboxamide], the “Kill in % after 3 d” value in the assay with Phaedon cochleariae (200 ppm) amounted to 0%. Moreover, the “Kill in % after 1 d” value in the assay on Phaedon cochleariae (500 ppm) was 0%. In the assay on Pyrenophora teres, the Emax at 1 ppm worked out at 26%. Also, the Emax at 0.3 ppm in the assay with Rhizoctonia solani is 20%.

As to `CC(c1ccc(C(F)(F)F)nc1)S(C)(=O)=NC#N` (centres unmarked) [sulfoxaflor], the “Kill in % after 1 d” value in the assay with Phaedon cochleariae (100 ppm) is 25%. For the same molecule, the Emax at 0.3 ppm in the assay with Rhizoctonia solani stood at 0%.

The values are drawn from patent publication US8598079B2, “Active compound combinations” (priority 2010, dated 2013).
